Data taken from patent US9512113B2, “N-(tetrazol-5-yl)- and N-(triazol-5-yl)arylcarboxylic thioamides and use thereof as herbicides” (BAYER CROPSCIENCE AG, priority 2012, dated 2016).

Columns and labels:
Format in all cases: in vivo
Zea mays (corn) [1] = assay: Pre-emergence action, damage to crop plants; conditions: Table C, 320 g/ha
Description: (§1) Seeds of monocotyledonous and dicotyledonous weed plants and crop plants are placed in wood-fiber pots in sandy loam and covered with soil. The compounds according to the invention, formulated in the form of wettable powders (WP) or as emulsion concentrates (EC), are then applied as aqueous suspension or emulsion at a water application rate of 600 to 800 I/ha (converted) with the addition of 0.2% of wetting agent to the surface of the covering soil. After the treatment, the pots are placed in a greenhouse and kept under good growth conditions for the test plants. The damage to the test plants is assessed visually after a test period of 3 weeks by comparison with untreated controls (herbicidal activity in percent (%): 100% action=the plants have died, 0% action=like control plants). Here, for example, the compounds Nos 1-8, 1-26 and 4-7, at an application rate of 80 g/ha, show an activity of at least 80% against Alopecurus myosuroides, Avena fatua, Cyperus serotinus, Echinochloa crus galli, Lolium multiflorum, Setaria viridis, Abutilon theophrasti, Amaranthus retroflexus, Matricaria inodora, Pharbitis purpureum, Stellaria media, Viola tricolor and Veronica persica.
(§2) These comparative experiments were carried out under the conditions mentioned above by the pre-emergence method and the post-emergence method. In the tables below, the top line in each case states the compound according to the invention, and the bottom line states the compound from WO 2012/028579 A1.

Avena fatua [2] = assay: Pre-emergence herbicidal action against harmful plants; conditions: Table C, 320 g/ha
Description: as §1, §2

Polygonum convolvulus [3] = assay: as above
Description: as §1, §2

[4] = system: Triticum aestivum (wheat); assay: Pre-emergence action, damage to crop plants; conditions: Table D, 320 g/ha
Description: as §1, §2

Pharbitis purpureum [5] = assay: Pre-emergence herbicidal action against harmful plants
Description: as §1, §2

[6] = system: Brassica napus (oilseed rape); assay: Pre-emergence action, damage to crop plants
Description: as §1, §2

Amaranthus retroflexus [7] = assay: Pre-emergence herbicidal action against harmful plants; conditions: Table E, 320 g/ha
Description: as §1, §2

Abutilon theophrasti = assay: as above
Description: as §1, §2

[8] = system: Triticum aestivum (wheat); assay: Post-emergence action, damage to crop plants
Experimental: (§3) Seeds of monocotyledonous and dicotyledonous weed and crop plants are placed in sandy loam in wood-fiber pots, covered with soil and cultivated in a greenhouse under good growth conditions. 2 to 3 weeks after sowing, the test plants are treated at the one-leaf stage. The compounds according to the invention, formulated in the form of wettable powders (WP) or as emulsion concentrates (EC), are then sprayed as aqueous suspension or emulsion at a water application rate of 600 to 800 I/ha (converted) with the addition of 0.2% of wetting agent onto the green parts of the plants. After the test plants have been left to stand in the greenhouse under optimal growth conditions for about 3 weeks, the action of the preparations is assessed visually in comparison to untreated controls (herbicidal action in percent (%): 100% action=the plants have died, 0% action=like control plants). Here, for example, the compounds Nos 1-8 and 1-83, at an application rate of 80 g/ha, show an activity of at least 80% against Alopecurus myosuroides, Avena fatua, Cyperus serotinus, Echinochloa crus galli, Lolium multiflorum, Setaria viridis, Abutilon theophrasti, Amaranthus retroflexus, Matricaria inodora, Pharbitis purpureum, Polygonum convolvulus, Stellaria media, Viola tricolor and Veronica persica.
as §2

Oryza sativa (rice) [9] = assay: Post-emergence action, damage to crop plants; conditions: Table G, 5 g/ha
Experimental: as §3, §2

Polygonum convolvulus [10] = assay: Post-emergence herbicidal action against harmful plants
Experimental: as §3, §2

Pharbitis purpureum [11] = assay: as above; conditions: Table G, 5 g/ha
Experimental: as §3, §2

Oryza sativa (rice) [12] = assay: Pre-emergence action, damage to crop plants; conditions: 20 g/ha
Description: as §1, §2

Echinochloa crus galli [13] = assay: Pre-emergence herbicidal action against harmful plants; conditions: 20 g/ha
Description: as §1, §2

Cyperus serotinus = assay: as above; conditions: Table B, 20 g/ha
Description: as §1, §2

Echinochloa crus galli [14] = assay: Post-emergence herbicidal action against harmful plants; conditions: Table H, 5 g/ha
Experimental: as §3, §2

Amaranthus retroflexus [15] = assay: as above; conditions: Table H, 5 g/ha
Experimental: as §3, §2

Setaria viridis = assay: as above; conditions: Table H, 5 g/ha
Experimental: as §3, §2

Zea mays (corn) [16] = assay: Post-emergence action, damage to crop plants; conditions: 80 g/ha
Experimental: as §3, §2

Lolium multiflorum = assay: Post-emergence herbicidal action against harmful plants; conditions: 80 g/ha
Experimental: as §3, §2

Alopecurus myosuroides = assay: as above; conditions: Table I, 80 g/ha
Experimental: as §3, §2

Avena fatua [17] = assay: as above; conditions: Table K, 80 g/ha
Experimental: as §3, §2

For `Cn1nnnc1NC(=S)c1ccc(S(C)(=O)=O)c(COCC(F)(F)F)c1Cl`, the “Damage to crop plants ZEAMX” value (Zea mays (corn) [1]) was 0%, the “Herbicidal efficacy against AVEFA” value (Avena fatua [2]) was 90% and the “Herbicidal efficacy against POLCO” value (Polygonum convolvulus [3]; Table C, 320 g/ha) was 90%.
For `Cn1nnnc1NC(=O)c1ccc(S(C)(=O)=O)c(COCC(F)(F)F)c1Cl`, the “Damage to crop plants ZEAMX” value (Zea mays (corn) [1]) was 20%, the “Herbicidal efficacy against AVEFA” value (Avena fatua [2]) was 70% and the “Herbicidal efficacy against POLCO” value (Polygonum convolvulus [3]; Table C, 320 g/ha) was 50%.
In the case of `Cc1nc(C(F)(F)F)ccc1C(=S)Nc1nnnn1C`, the “Damage to crop plants TRZAS” value [4] is reported as 0%, the “Herbicidal efficacy against POLCO” value (Polygonum convolvulus [3]; Table D, 320 g/ha) is reported as 80% and the “Herbicidal efficacy against PHBPU” value (Pharbitis purpureum [5]; Table D, 320 g/ha) is reported as 80%.
`Cc1nc(C(F)(F)F)ccc1C(=O)Nc1nnnn1C` was tested, and the “Damage to crop plants TRZAS” value [4] was 20%, the “Herbicidal efficacy against POLCO” value (Polygonum convolvulus [3]; Table D, 320 g/ha) was 60% and the “Herbicidal efficacy against PHBPU” value (Pharbitis purpureum [5]; Table D, 320 g/ha) was 60%.
In the case of `Cc1c(C(=S)Nc2ncnn2C)ccc(S(C)(=O)=O)c1S(C)(=O)=O`, the “Damage to crop plants BRSNW” value ([6]; Table E, 320 g/ha) is reported as 0%, the “Herbicidal efficacy against AMARE” value (Amaranthus retroflexus [7]) is reported as 90% and the “Herbicidal efficacy against ABUTH” value (Abutilon theophrasti; Table E, 320 g/ha) is reported as 80%.
For `Cc1c(C(=O)Nc2ncnn2C)ccc(S(C)(=O)=O)c1S(C)(=O)=O`, the “Damage to crop plants BRSNW” value ([6]; Table E, 320 g/ha) was 20%, the “Herbicidal efficacy against AMARE” value (Amaranthus retroflexus [7]) was 40% and the “Herbicidal efficacy against ABUTH” value (Abutilon theophrasti; Table E, 320 g/ha) was 0%.
For `CCOc1c(S(C)(=O)=O)ccc(C(=S)Nc2nnnn2C)c1Cl`, the “Damage to crop plants TRZAS” value ([8]; Table G, 5 g/ha) was 0%, the “Damage to crop plants ORYSA” value (Oryza sativa (rice) [9]) was 10% and the “Herbicidal efficacy against POLCO” value (Polygonum convolvulus [10]; Table G, 5 g/ha) was 60%. For the same compound, the “Herbicidal efficacy against PHBPU” value (Pharbitis purpureum [11]) was 80%.
With `CCOc1c(S(C)(=O)=O)ccc(C(=O)Nc2nnnn2C)c1Cl` the “Damage to crop plants TRZAS” value ([8]; Table G, 5 g/ha) was 30%, the “Damage to crop plants ORYSA” value (Oryza sativa (rice) [9]) was 40% and the “Herbicidal efficacy against POLCO” value (Polygonum convolvulus [10]; Table G, 5 g/ha) was 40%. The “Herbicidal efficacy against PHBPU” value (Pharbitis purpureum [11]) was 20%.
`Cn1nnnc1NC(=S)c1ccc(C(F)(F)F)cc1S(C)(=O)=O` was tested, and the “Damage to crop plants TRZAS” value ([8]; Table J, 80 g/ha) was 20% and the “Herbicidal efficacy against POLCO” value (Polygonum convolvulus [10]; Table J, 80 g/ha) was 90%.
`Cn1nnnc1NC(=O)c1ccc(C(F)(F)F)cc1S(C)(=O)=O` was tested, and the “Damage to crop plants TRZAS” value ([8]; Table J, 80 g/ha) was 60% and the “Herbicidal efficacy against POLCO” value (Polygonum convolvulus [10]; Table J, 80 g/ha) was 70%.
For `Cc1c(C(=S)Nc2nnnn2C)ccc(S(C)(=O)=O)c1Cl` [drawing 8], the “Damage to crop plants BRSNW” value ([6]; Table A, 20 g/ha) was 0%, the “Herbicidal efficacy against PHBPU” value (Pharbitis purpureum [5]; Table A, 20 g/ha) was 20% and the “Herbicidal efficacy against ABUTH” value (Abutilon theophrasti; Table A, 20 g/ha) was 90%.
In the case of `Cc1c(C(=O)Nc2nnnn2C)ccc(S(C)(=O)=O)c1Cl` [drawing 9], the “Damage to crop plants BRSNW” value ([6]; Table A, 20 g/ha) is reported as 20%, the “Herbicidal efficacy against PHBPU” value (Pharbitis purpureum [5]; Table A, 20 g/ha) is reported as 0% and the “Herbicidal efficacy against ABUTH” value (Abutilon theophrasti; Table A, 20 g/ha) is reported as 70%.
In the case of `CCCn1nnnc1NC(=S)c1ccc(C(F)(F)F)c(S(C)(=O)=O)c1C` [drawing 10], the “Damage to crop plants ORYSA” value (Oryza sativa (rice) [12]; Table B) is reported as 0%, the “Herbicidal efficacy against ECHCG” value (Echinochloa crus galli [13]; Table B) is reported as 20% and the “Herbicidal efficacy against CYPES” value (Cyperus serotinus) is reported as 100%.
With `CCCn1nnnc1NC(=O)c1ccc(C(F)(F)F)c(S(C)(=O)=O)c1C` [drawing 11] the “Damage to crop plants ORYSA” value (Oryza sativa (rice) [12]; Table B) was 50%, the “Herbicidal efficacy against ECHCG” value (Echinochloa crus galli [13]; Table B) was 0% and the “Herbicidal efficacy against CYPES” value (Cyperus serotinus) was 0%.
In the case of `Cc1c(C(=S)Nc2nnnn2C)ccc(C(F)(F)F)c1S(C)(=O)=O` [drawing 18], the “Damage to crop plants BRSNW” value ([6]; Table F, 20 g/ha) is reported as 0%, the “Damage to crop plants ORYSA” value (Oryza sativa (rice) [12]; Table F) is reported as 20% and the “Herbicidal efficacy against ECHCG” value (Echinochloa crus galli [13]; Table F) is reported as 100%. The “Herbicidal efficacy against POLCO” value (Polygonum convolvulus [3]; Table F, 20 g/ha) was 60%.
In the case of `Cc1c(C(=O)Nc2nnnn2C)ccc(C(F)(F)F)c1S(C)(=O)=O` [drawing 19], the “Damage to crop plants BRSNW” value ([6]; Table F, 20 g/ha) is reported as 30%, the “Damage to crop plants ORYSA” value (Oryza sativa (rice) [12]; Table F) is reported as 50% and the “Herbicidal efficacy against ECHCG” value (Echinochloa crus galli [13]; Table F) is reported as 20%. For the same compound, the “Herbicidal efficacy against POLCO” value (Polygonum convolvulus [3]; Table F, 20 g/ha) was 0%.
For `Cc1c(C(=S)Nc2nnnn2C)ccc(S(C)(=O)=O)c1Cl` [drawing 22], the “Herbicidal efficacy against ECHCG” value (Echinochloa crus galli [14]) was 70%, the “Herbicidal efficacy against AMARE” value (Amaranthus retroflexus [15]) was 40% and the “Herbicidal efficacy against SETVI” value (Setaria viridis) was 40%.
For `Cc1c(C(=O)Nc2nnnn2C)ccc(S(C)(=O)=O)c1Cl` [drawing 23], the “Herbicidal efficacy against ECHCG” value (Echinochloa crus galli [14]) was 10%, the “Herbicidal efficacy against AMARE” value (Amaranthus retroflexus [15]) was 20% and the “Herbicidal efficacy against SETVI” value (Setaria viridis) was 0%.
`CCCn1nnnc1NC(=S)c1ccc(C(F)(F)F)c(S(C)(=O)=O)c1C` [drawing 24] was tested, and the “Damage to crop plants ZEAMX” value (Zea mays (corn) [16]; Table I) was 0%, the “Herbicidal efficacy against LOLMU” value (Lolium multiflorum; Table I) was 20% and the “Herbicidal efficacy against ALOMY” value (Alopecurus myosuroides) was 80%.
In the case of `CCCn1nnnc1NC(=O)c1ccc(C(F)(F)F)c(S(C)(=O)=O)c1C` [drawing 25], the “Damage to crop plants ZEAMX” value (Zea mays (corn) [16]; Table I) is reported as 20%, the “Herbicidal efficacy against LOLMU” value (Lolium multiflorum; Table I) is reported as 0% and the “Herbicidal efficacy against ALOMY” value (Alopecurus myosuroides) is reported as 30%.
`Cc1c(C(=S)Nc2nnnn2C)ccc(C(F)(F)F)c1S(C)(=O)=O` [drawing 28] was tested, and the “Damage to crop plants ZEAMX” value (Zea mays (corn) [16]; Table K) was 50%, the “Herbicidal efficacy against AVEFA” value (Avena fatua [17]) was 90% and the “Herbicidal efficacy against LOLMU” value (Lolium multiflorum; Table K) was 90%.
For `Cc1c(C(=O)Nc2nnnn2C)ccc(C(F)(F)F)c1S(C)(=O)=O` [drawing 29], the “Damage to crop plants ZEAMX” value (Zea mays (corn) [16]; Table K) was 70%, the “Herbicidal efficacy against AVEFA” value (Avena fatua [17]) was 70% and the “Herbicidal efficacy against LOLMU” value (Lolium multiflorum; Table K) was 70%.
